Columns and labels:
Trypanosoma cruzi [1] = test: Antichagasic activity against epimastigote form of Trypanosoma cruzi Tulahuen 2 assessed as parasite growth inhibition measured on day 5; type: functional, organism-based; settings: Tulahuen 2, 120 h
J774 = test: Cytotoxicity against mouse J774 cells assessed as cell viability after 48 hrs by MTT assay; type: cell-based; settings: J774, 48 h
[2] = Selectivity index, ratio of IC50 for mouse J774 cells to IC50 for epimastigote form of Trypanosoma cruzi Tulahuen 2; type: toxicity, cell-based; settings: read-out: Ratio IC50
Salmonella typhimurium [3] = test: Mutagenicity in Salmonella typhimurium TA98 at 0.06 to 5 ug/plate after 1 hr by Ames test in presence of S9 fraction; type: toxicity, organism-based; settings: salmonella enterica subsp. enterica serovar typhimurium, s9, 1 h
Trypanosoma cruzi [4] = test: Ratio of nifurtimox IC50 to compound IC50 for epimastigote form of Trypanosoma cruzi Tulahuen 2; type: functional
Salmonella typhimurium [5] = test: Mutagenicity in Salmonella typhimurium TA98 at 0.06 to 5 ug/plate after 1 hr by Ames test in absence of S9 fraction; type: toxicity, organism-based; settings: salmonella enterica subsp. enterica serovar typhimurium
Trypanosoma cruzi [6] = test: Antichagasic activity against epimastigote form of Trypanosoma cruzi Tulahuen 2 assessed as parasite growth inhibition at 25 uM measured on day 5 relative to control; type: functional; settings: Tulahuen 2, 120 h, read-out: GI
Salmonella typhimurium [7] = test: Mutagenicity in Salmonella typhimurium TA98 at 0.06 to 12.5 ug/plate after 1 hr by Ames test in absence of S9 fraction; type: toxicity, organism-based; settings: salmonella enterica subsp. enterica serovar typhimurium
Salmonella typhimurium [8] = test: Mutagenicity in Salmonella typhimurium TA98 at 0.06 to 12.5 ug/plate after 1 hr by Ames test in presence of S9 fraction; type: toxicity, organism-based; settings: salmonella enterica subsp. enterica serovar typhimurium, s9, 1 h
Salmonella typhimurium [9] = test: Mutagenicity in Salmonella typhimurium TA98 at 0.3 to 25 ug/plate after 1 hr by Ames test in presence of S9 fraction; type: toxicity, organism-based; settings: salmonella enterica subsp. enterica serovar typhimurium, s9, 1 h
Salmonella typhimurium [10] = test: Mutagenicity in Salmonella typhimurium TA98 at 0.3 to 25 ug/plate after 1 hr by Ames test in absence of S9 fraction; type: toxicity, organism-based; settings: salmonella enterica subsp. enterica serovar typhimurium
Salmonella typhimurium [11] = test: Mutagenicity in Salmonella typhimurium TA98 at 0.61 to 50 ug/plate after 1 hr by Ames test in absence of S9 fraction; type: toxicity, organism-based; settings: salmonella enterica subsp. enterica serovar typhimurium
Salmonella typhimurium [12] = test: Mutagenicity in Salmonella typhimurium TA98 at 0.61 to 50 ug/plate after 1 hr by Ames test in presence of S9 fraction; type: toxicity, organism-based; settings: salmonella enterica subsp. enterica serovar typhimurium, s9, 1 h
Salmonella typhimurium [13] = test: Mutagenicity in Salmonella typhimurium TA98 at 1.2 X 10^-3 to 5 ug/plate after 1 hr by Ames test in presence of S9 fraction; type: toxicity, organism-based; settings: salmonella enterica subsp. enterica serovar typhimurium, s9, 1 h
Salmonella typhimurium [14] = test: Mutagenicity in Salmonella typhimurium TA98 at 1.2 X 10^-3 to 5 ug/plate after 1 hr by Ames test in absence of S9 fraction; type: toxicity, organism-based; settings: salmonella enterica subsp. enterica serovar typhimurium
Salmonella typhimurium [15] = test: Mutagenicity in Salmonella typhimurium TA98 at 0.012 to 1 ug/plate after 1 hr by Ames test in presence of S9 fraction; type: toxicity, organism-based; settings: salmonella enterica subsp. enterica serovar typhimurium, s9, 1 h
Salmonella typhimurium [16] = test: Mutagenicity in Salmonella typhimurium TA98 at 0.012 to 1 ug/plate after 1 hr by Ames test in absence of S9 fraction; type: toxicity, organism-based; settings: salmonella enterica subsp. enterica serovar typhimurium

| SMILES | IC50 (Trypanosoma cruzi [1]) | IC50 (J774) | selectivity ratio [2] | Activity (Salmonella typhimurium [3]) | Activity (Salmonella typhimurium [5]) | inhibition of growth at 25 µM (Trypanosoma cruzi [6]) | other results |
| --- | --- | --- | --- | --- | --- | --- | --- |
| CCOC(=O)c1c(C(F)(F)F)[n+]([O-])c2cc(F)c(F)cc2[n+]1[O-] | 0.4 µM | 4 µM | 10 | Non-toxic | Toxic | 100% | Ratio IC50 (Trypanosoma cruzi [4]): 18 |
| CCOC(=O)c1c(C(F)(F)F)[n+]([O-])c2ccc(C(F)(F)F)cc2[n+]1[O-] | 1 µM | 4.2 µM | 4.2 | – | – | 100% | Activity (Salmonella typhimurium [7]): Non-toxic; Activity (Salmonella typhimurium [8]): Non-toxic |
| COC(=O)c1c(C(F)(F)F)[n+]([O-])c2ccccc2[n+]1[O-] | 2.6 µM | 19 µM | 7.3 | Toxic | Toxic | 100% | – |
| COC(=O)c1c(C(F)(F)F)[n+]([O-])c2ccc(OC)cc2[n+]1[O-] | 4.6 µM | – | – | – | – | 86.6% | Activity (Salmonella typhimurium [9]): Toxic; Activity (Salmonella typhimurium [10]): Toxic |
| COC(=O)c1c(C(F)(F)F)[n+]([O-])c2ccc(C)cc2[n+]1[O-] | 13.7 µM | 4 µM | 0.3 | Toxic | Toxic | 96.1% | – |
| COC(=O)c1c(C(F)(F)F)[n+]([O-])c2cc(C)c(C)cc2[n+]1[O-] | 5 µM | 4 µM | 0.8 | – | – | 91.6% | Activity (Salmonella typhimurium [11]): Toxic; Activity (Salmonella typhimurium [12]): Toxic |
| COC(=O)c1c(C(F)(F)F)[n+]([O-])c2ccc(Cl)cc2[n+]1[O-] | 1.8 µM | – | – | – | – | 100% | Activity (Salmonella typhimurium [13]): Non-toxic; Activity (Salmonella typhimurium [14]): Toxic |
| COC(=O)c1c(C(F)(F)F)[n+]([O-])c2cc(Cl)c(Cl)cc2[n+]1[O-] | 10.8 µM | 0.5 µM | < 0.1 | – | – | 100% | Activity (Salmonella typhimurium [15]): Non-toxic; Activity (Salmonella typhimurium [16]): Non-toxic |
| COC(=O)c1c(C(F)(F)F)[n+]([O-])c2ccc(F)cc2[n+]1[O-] | 3.5 µM | 2.5 µM | 0.7 | – | – | 100% | Activity (Salmonella typhimurium [9]): Non-toxic; Activity (Salmonella typhimurium [10]): Toxic |
| COC(=O)c1c(C(F)(F)F)[n+]([O-])c2cc(F)c(F)cc2[n+]1[O-] | 1.5 µM | – | – | Non-toxic | Toxic | 100% | – |
| COC(=O)c1c(C(F)(F)F)[n+]([O-])c2ccc(C(F)(F)F)cc2[n+]1[O-] | 5 µM | 4 µM | 0.8 | Non-toxic | Non-toxic | 100% | – |
| CCOC(=O)c1c(C(F)(F)F)[n+]([O-])c2ccccc2[n+]1[O-] | 4 µM | 4 µM | 1 | Non-toxic | Toxic | 100% | – |
| CCOC(=O)c1c(C(F)(F)F)[n+]([O-])c2ccc(OC)cc2[n+]1[O-] | 4.8 µM | 6 µM | 1.2 | – | – | 100% | Activity (Salmonella typhimurium [9]): Toxic; Activity (Salmonella typhimurium [10]): Toxic |
| CCOC(=O)c1c(C(F)(F)F)[n+]([O-])c2ccc(C)cc2[n+]1[O-] | 4.8 µM | 7 µM | 1.4 | – | – | 100% | Activity (Salmonella typhimurium [9]): Non-toxic; Activity (Salmonella typhimurium [10]): Toxic |
| CCOC(=O)c1c(C(F)(F)F)[n+]([O-])c2cc(C)c(C)cc2[n+]1[O-] | 7.6 µM | 4 µM | 0.5 | – | – | 87.5% | Activity (Salmonella typhimurium [7]): Toxic; Activity (Salmonella typhimurium [8]): Non-toxic |
| CCOC(=O)c1c(C(F)(F)F)[n+]([O-])c2ccc(Cl)cc2[n+]1[O-] | 1.8 µM | – | – | Non-toxic | Toxic | 100% | – |
| CCOC(=O)c1c(C(F)(F)F)[n+]([O-])c2cc(Cl)c(Cl)cc2[n+]1[O-] | 2.9 µM | – | – | Non-toxic | Non-toxic | 100% | – |
| CCOC(=O)c1c(C(F)(F)F)[n+]([O-])c2ccc(F)cc2[n+]1[O-] | 3.3 µM | 0.5 µM | 0.1 | Non-toxic | Toxic | 100% | – |
| CC1CS(=O)(=O)CCN1/N=C/c1ccc([N+](=O)[O-])o1 (configuration not stated) [NIFURTIMOX] | – | 316 µM | 41 | – | – | 100% | – |

Reference: ChEMBL document CHEMBL2413059, “Novel quinoxaline 1,4-di-N-oxide derivatives as new potential antichagasic agents” (Eur J Med Chem, 2013)
